The record followed here is PubChem BioAssay AID2423 (Broad Institute, 2010).

Records with an inconclusive call do not appear. Active and inactive are the calls of the source. No rule for the calls is given here.

For this test, the system named is C. albicans CaCi-8 + fluconazole, Alamar Blue growth, 48 h. The test is described as follows: resistant C. albicans growth inhibition with fluconazole, dose response, CaCi-8 strain, Alamar Blue fluorescence (AID 2423).
The term EC50 denotes the concentration at which the effect is half-maximal. As for `CCCCCCc1c(C)nc(-n2[nH]c(C)c(CCO)c2=O)[nH]c1=O`, the EC50 is 1690 nM. Consider `COc1ccc(CCNc2ncnc3sc(C)cc23)cc1OC`, for which the EC50 was 1610 nM.

In the case of `O=[N+]([O-])c1cccnc1S(=O)(=O)c1ccccc1`, the EC50 is 865 nM. With `Cn1cc(C(c2ccccn2)c2cn(C)c3ccccc23)c2ccccc21`, the EC50 is 185 nM.

In the case of `CCN(c1ccccc1)S(=O)(=O)c1ccc(C(=O)Nc2nnc(C3CC3)o2)cc1`, the EC50 was 2220 nM. `O=C1CCCN1CCCN=c1c([N+](=O)[O-])nn(-c2ccc(Cl)cc2)n1O`: the EC50 was 6120 nM. Turning to `COc1ccc(C(=O)NC(=S)NNC(=O)c2ccccc2C)cc1`, the EC50 was 1990 nM.

In the case of `COc1ccc(C(=O)NC(=S)NNC(=O)CCc2ccccc2)cc1`, the EC50 was 3200 nM.

Take `O=C(NNC(=O)c1cc2ccccc2cc1O)NC1CCCCC1`: the EC50 was 13600 nM. For `Cc1ccc(C)c(OC(=O)c2cncc(Br)c2)c1` the value was > 16000 nM (inactive). As for `CCC(=O)N1CCN(c2ccc(Cl)cc2NC(=O)c2ccc3c(c2)OCCO3)CC1`, the EC50 is 811 nM. As to `C=CCn1c(O)c(N=NC(=S)Nc2ccc(OC)cc2)c2ccccc21`, the EC50 is 7700 nM. For the compound `CC12CCC(C(=O)Nc3ncc([N+](=O)[O-])s3)(OC1=O)C2(C)C` (stereo not given), the EC50 was > 16000 nM (inactive).

`C(#Cc1ccccc1)C[N+]1(CC#Cc2cccc3ccccc23)CCCC1`: the EC50 was 5640 nM. The value for `Cc1cc(C(C#N)c2ccccc2F)n2ncnc2n1` (stereo not given) was 895 nM; that for `COc1ccc(C(=O)Oc2c(CN3CCOCC3)cc(Cl)c3cccnc23)cc1` was 9170 nM; that for `O=C1C2CCCN2C(c2ccccc2)N1c1ccccn1` (stereo not given) was > 16000 nM (inactive). For the compound `CCCCOc1ccc(C(=O)NNC(=S)NC(=O)CC)cc1`, the EC50 was 858 nM.

`O=[N+]([O-])c1cc(S(=O)(=O)C(F)(F)F)ccc1Sc1nc2ccccc2s1`: the EC50 is 3200 nM. The value for `CCOC(=O)CNC(=O)c1sc2ncnc(N3CCc4ccccc4C3)c2c1C` was 4560 nM. As to `CCc1ccc(-c2csc3ncn(Cc4ccc(C(=O)O)cc4)c(=O)c23)cc1`, the EC50 was 954 nM. Take `CCN(CC)c1ccc2cc(S(=O)(=O)c3ccc(C)cc3)c(=O)oc2c1`: the EC50 is 657 nM. As to `Cc1ccc(-c2nnc(NC(=O)c3ccc([N+](=O)[O-])o3)o2)c(C)c1`, the EC50 was 2160 nM.

For the compound `CC(C)(C)c1ccc(Cc2n[nH]c(=S)[nH]c2=O)cc1`, the EC50 is 351 nM. Consider `O=C(NCc1cccnc1)c1ccc(-c2cccc(Cl)c2Cl)o1`, for which the EC50 is 1760 nM. For `Cc1cccc(NCc2ccc(O)c3ncccc23)c1C`, the concentration giving a half-maximal response (EC50) is 11800 nM. Regarding `Cc1ccc(NCc2ccc(O)c3ncccc23)cc1C`, the EC50 was 13400 nM.

In the case of `CC(=O)c1cccc(NC(=S)NC(=O)c2ccc(C)cc2)c1`, the EC50 was 3850 nM. On to `CC(C)CCNCC(=O)NC(c1ccccc1)c1ccccc1`, for which the EC50 is > 16000 nM (inactive). In the case of `O=S(=O)(Cc1ccccc1)N1CCc2ccccc21`, the EC50 is 10900 nM. For `Cc1ccc(-c2cn(-c3ccccc3)c3[n+]2CCCS3)cc1` the value was 10300 nM; for `Cc1ccc(-n2nc(C)c3c(C)cc(=O)[nH]c32)cc1`, 2080 nM; for `COc1cc(C(=O)NC(=S)N(CCc2ccccc2)CCc2ccccc2)cc(OC)c1OC`, 1820 nM.

With `Oc1c(CN2CCN(c3ccc(F)cc3)CC2)cc(Cl)c2cccnc12`, the 50% effective concentration (EC50) was 572 nM. On to `C=C(C)CSc1[nH]c(=O)cc(C)c1C#N`, for which the EC50 is 1250 nM. With `NC(=O)c1c(NC(=O)c2ccccc2F)sc2c1CCCC2`, the EC50 is 2010 nM. `CCN(c1ccccc1)S(=O)(=O)c1ccc(Cl)c(NC(=O)CN2C(=O)NC3(CCCC3)C2=O)c1`: the EC50 is > 15000 nM (inactive). For `CCc1ccc2c(c1)/C(=C/C(=O)c1cccs1)C(=O)N2` the value was 2380 nM; for `O=C(O)c1cnc(-c2ccccc2)nc1Sc1ccc(Cl)cc1`, > 15000 nM (inactive); for `Nc1c(S(=O)(=O)c2ccccc2)c2nc3ccccc3nc2n1CCN1CCOCC1`, 2970 nM. As for `Cc1ccc(C(=O)N/N=C/c2c(O)ccc3ccccc23)cn1`, the EC50 is 947 nM. In the case of `COc1cc(OC)cc(C(=O)NNC(=O)Cc2ccc(OC)c(S(=O)(=O)N3CCOCC3)c2)c1`, the EC50 is > 15000 nM (inactive). Consider `C=CCNC(=S)N/N=C(\C)c1ccccn1`, for which the EC50 is 2300 nM. The value for `CCCCCc1ccc(OCCCC[n+]2ccccc2)c(CCCCC)c1` was > 16000 nM (inactive). On to `Cc1cc(Nc2ccc(Cl)cc2)nc(NCc2ccccc2)n1`, for which the EC50 is 5160 nM. `O=c1c(Cl)c(NCCCO)cnn1-c1nc2ccccc2[nH]1`: the EC50 is > 15000 nM (inactive). On to `CCC(=O)NC(c1cccs1)c1cc(Cl)c2cccnc2c1O` (stereo not given), for which the EC50 was 372 nM.

With `CN(C)c1ccc(/C=C/C=C/c2sc3ccccc3[n+]2C)cc1`, the EC50 is 1740 nM. Regarding `CN(C)S(=O)(=O)c1cccc(NC(=S)N/N=C/c2ccc(O)c(O)c2O)c1`, the EC50 was 2670 nM. In the case of `Oc1c(C(Nc2nccs2)c2ccc(C(F)(F)F)cc2)ccc2cccnc12` (stereo not given), the EC50 was 601 nM. The value for `CN1CCN(CCCNC(=O)c2ccc(/C=C3\Oc4ccccc4N(Cc4ccc(Cl)cc4)C3=O)cc2)CC1` was 7660 nM; that for `Brc1ccc(-c2nnc3sc(CN4CCN(c5ccccc5)CC4)cn23)cc1` was 288 nM; that for `CCNC(=S)NNC(=O)c1cc(-c2cc(C)ccc2C)nc2ccccc12` was 134 nM. For the compound `CC(=O)NC(c1ccc(C)cc1)c1cc([N+](=O)[O-])c2cccnc2c1O` (stereo not given), the EC50 is 201 nM. As for `COc1ccc(-n2nc(C(=O)NCC(=O)N3CCN(c4ccc(F)cc4)CC3)c3ccccc3c2=O)c(OC)c1`, the EC50 was 773 nM.

With `Oc1[nH]c2ccc(Br)cc2c1N=NC(=S)N1CCOCC1`, the EC50 is 3100 nM. With `CCOC(=O)c1c(NC(=O)C2Cc3ccccc3C(=O)O2)sc2c1CCCC2` (stereo not given), the EC50 is > 16000 nM (inactive). As for `Cc1ccc(O)c(-c2cc(-c3cccc(Br)c3)n[nH]2)c1`, the EC50 is 6710 nM.

As to `Cc1ccc(C)c(/C=C/C(=O)c2ccccc(=O)c2O)c1`, the half-maximal effective concentration (EC50) is 1990 nM.

With `O=[N+]([O-])c1cccc(C=Nc2cccc3ccccc23)c1O`, the EC50 was 12200 nM. For `CCN(CC)c1ccc(/C=N/NC(=O)c2ccco2)c(O)c1`, the EC50 is 2420 nM. For `Nc1cc(N)nc(SCc2cccc(F)c2)n1` the value was > 15000 nM (inactive). For the compound `COc1ccc(C(=O)NNC(=S)NC(=O)c2ccc(Cl)cc2)cc1`, the EC50 was 928 nM. With `O=C(Nc1nc(=O)c2ccccc2s1)c1ccccc1`, the EC50 was > 15000 nM (inactive). In the case of `Cc1cc(C)nc(NS(=O)(=O)c2ccc(NC(=O)COc3ccccc3)cc2)n1`, the EC50 was > 15000 nM (inactive). In the case of `COc1ccnc(Oc2cccc(C(F)(F)F)c2)c1C(=O)N/C=N/OCc1ccccc1F`, the EC50 is > 15000 nM (inactive). Regarding `COc1ccc(C[C@H]2NC[C@H](O)[C@H]2OC(C)=O)cc1`, the EC50 is 1480 nM. `Cc1cc(NC(=O)COC(=O)[C@@H](NS(=O)(=O)c2ccc(Br)cc2)C(C)C)no1`: the EC50 is > 15000 nM (inactive). With `COc1ccc(OC)c(C2C(C(=O)c3cc4ccccc4o3)=C(O)C(=O)N2c2cc(C)on2)c1` (stereo not given), the EC50 is below 120 nM.

As for `C(=N\NC1=Nc2cccc3cccc1c23)/c1ccccn1`, the EC50 was > 16000 nM (inactive).
